Reference: article PMC6572064, “Discovery of 2-(1-(3-(4-Chloroxyphenyl)-3-oxo- propyl)pyrrolidine-3-yl)-1H-benzo[d]imidazole-4-carboxamide: A Potent Poly(ADP-ribose) Polymerase (PARP) Inhibitor for Treatment of Cancer” (Molecules, 2019)
Read-outs that look alike come from different tables or passages of the source.

Tests used:
PARP-2 = molecular target: T1, PARP-2 (Homo sapiens, UniProt Q9UGN5); assay: PARP-2 inhibition assay (PARP-2 Chemiluminescent Assay Kit, BPS Bioscience); type: biochemical; conditions: 10 nM compound
T1 construct: purchased BPS Bioscience 80552
T1 sequence (Q9UGN5 whole entry): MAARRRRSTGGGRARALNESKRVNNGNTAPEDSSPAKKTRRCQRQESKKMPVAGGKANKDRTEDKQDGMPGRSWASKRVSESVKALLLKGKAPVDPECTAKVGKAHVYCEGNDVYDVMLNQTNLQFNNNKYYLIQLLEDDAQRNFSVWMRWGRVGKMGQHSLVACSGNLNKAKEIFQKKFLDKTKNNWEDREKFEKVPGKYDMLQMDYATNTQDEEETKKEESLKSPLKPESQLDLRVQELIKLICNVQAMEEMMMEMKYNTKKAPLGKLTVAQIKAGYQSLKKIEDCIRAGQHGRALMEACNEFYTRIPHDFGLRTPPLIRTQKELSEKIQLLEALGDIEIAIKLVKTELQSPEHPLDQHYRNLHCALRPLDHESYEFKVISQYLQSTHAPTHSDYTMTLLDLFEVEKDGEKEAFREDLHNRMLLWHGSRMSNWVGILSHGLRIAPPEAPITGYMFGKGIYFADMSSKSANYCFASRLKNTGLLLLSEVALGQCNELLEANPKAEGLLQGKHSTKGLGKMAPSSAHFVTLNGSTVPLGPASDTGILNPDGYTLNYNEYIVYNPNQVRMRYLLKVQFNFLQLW
Experimental: (§1) The PARP-1 and PARP-2 inhibition assays were performed in outsourcing, by a CRO company, Shanghai Medicilon Inc. (Shanghai, China). […] Briefly, PARP-1 or PARP-2 biotinylated substrate was incubated with compounds or solvent control at varying concentrations and an assay buffer containing the PARP-1 or PARP-2 enzyme.

[1] = tested on: CAPAN-1 (a BRCA-2-mutated pancreatic cancer cell line); assay: Cell proliferation assay, three-day, CellTiter-Glo, CAPAN-1; type: cell-based; conditions: for LogIC50: Log (uM); for IC50 / inhibition at 0.00508 µM / inhibition at 0.0152 µM / inhibition at 0.0457 µM / inhibition at […] / inhibition at 0.41 µM / inhibition at 1.23 µM / inhibition at 3.7 µM / inhibition at 11.11 µM / inhibition at 33.33 µM / inhibition at 100 µM: Homo sapiens; for inhibition at 0.00508 µM: CAPAN-1, 0.00508 uM; for inhibition at 0.0152 µM: CAPAN-1, 0.0152 uM; for inhibition at 0.0457 µM: CAPAN-1, 0.0457 uM; for inhibition at […]: CAPAN-1, 0.14 uM; for inhibition at 0.41 µM: CAPAN-1, 0.41 uM; for inhibition at 1.23 µM: CAPAN-1, 1.23 uM; for inhibition at 3.7 µM: CAPAN-1, 3.70 uM; for inhibition at 11.11 µM: CAPAN-1, 11.11 uM; for inhibition at 33.33 µM: CAPAN-1, 33.33 uM; for inhibition at 100 µM: CAPAN-1, 100.00 uM
Experimental: (§2) A three-day assay was conducted. A cell suspension was prepared. Cell density was counted by an automated cell counter and then diluted to the required density, according to seeding density. 50 μL cells were seeded into 384-well plate in growth medium according to the plate map. The cells were incubated at 37 °C, 5% CO2 overnight.
(§3) 200× compound solution in DMSO was prepared and diluted with growth medium to 26× final concentration by addition of 26 μL 200× compounds to 174 μL growth medium. Then 2 μL of diluted compound solution was added to cells and the cell was incubated at 37 °C, 5% CO2 for 72 h.
(§4) The assay plate was equilibrated to room temperature prior to measurement. 15 μL of CellTiter-Glo Reagent was added into each well and the contents were mixed for 2 min on an orbital shaker to induce cell lysis. The cells were incubated at room temperature for 60 min to stabilize luminescent signal. Luminescence was recorded on the Envision system.

PARP-1 = molecular target: T2, PARP-1 (Homo sapiens, UniProt P09874); assay: PARP-1 inhibition assay (PARP-1 Chemiluminescent Assay Kit, BPS Bioscience); type: biochemical; conditions: 10 nM compound
T2 construct: purchased BPS Bioscience 80569
T2 sequence (P09874 whole entry): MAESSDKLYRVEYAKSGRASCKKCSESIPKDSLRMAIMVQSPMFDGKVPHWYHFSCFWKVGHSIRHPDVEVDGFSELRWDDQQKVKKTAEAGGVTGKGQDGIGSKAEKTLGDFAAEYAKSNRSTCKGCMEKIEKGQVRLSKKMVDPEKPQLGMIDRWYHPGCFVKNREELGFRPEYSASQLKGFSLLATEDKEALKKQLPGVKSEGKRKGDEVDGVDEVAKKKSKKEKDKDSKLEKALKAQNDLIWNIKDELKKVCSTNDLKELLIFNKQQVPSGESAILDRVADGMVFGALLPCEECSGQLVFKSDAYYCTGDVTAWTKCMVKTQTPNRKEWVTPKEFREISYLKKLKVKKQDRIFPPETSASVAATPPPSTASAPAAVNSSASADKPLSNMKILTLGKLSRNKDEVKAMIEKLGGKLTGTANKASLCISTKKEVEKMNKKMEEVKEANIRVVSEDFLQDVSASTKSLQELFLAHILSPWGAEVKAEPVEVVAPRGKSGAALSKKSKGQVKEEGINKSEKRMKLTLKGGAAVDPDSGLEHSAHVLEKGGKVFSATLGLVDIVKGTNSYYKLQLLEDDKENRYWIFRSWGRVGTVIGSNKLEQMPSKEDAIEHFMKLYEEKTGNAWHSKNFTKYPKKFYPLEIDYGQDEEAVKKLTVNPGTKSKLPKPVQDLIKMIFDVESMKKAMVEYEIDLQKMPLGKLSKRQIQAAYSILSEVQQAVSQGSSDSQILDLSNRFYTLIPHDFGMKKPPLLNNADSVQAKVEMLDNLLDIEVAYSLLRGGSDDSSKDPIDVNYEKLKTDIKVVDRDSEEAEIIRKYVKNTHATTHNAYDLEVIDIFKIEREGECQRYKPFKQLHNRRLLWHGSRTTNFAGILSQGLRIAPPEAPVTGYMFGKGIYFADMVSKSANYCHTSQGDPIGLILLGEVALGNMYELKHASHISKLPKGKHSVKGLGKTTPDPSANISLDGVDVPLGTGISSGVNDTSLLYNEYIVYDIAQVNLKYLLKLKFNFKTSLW
Experimental: as §1

[2] = tested on: MDA-MB-436 (a BRCA-1-mutated breast cancer cell line); assay: Cell proliferation assay, three-day, CellTiter-Glo, MDA-MB-436; type: cell-based; conditions: for inhibition at 0.00508 µM / inhibition at 0.0152 µM / inhibition at 0.0457 µM / inhibition at 0.41 µM / inhibition at 1.23 µM / inhibition at 3.7 µM / inhibition at 11.11 µM / inhibition at 33.33 µM / inhibition at 100 µM / IC50: Homo sapiens; for inhibition at 0.00508 µM: MDA-MB-436, MDA-MB-436, Conc. 0.00508 uM; for inhibition at 0.0152 µM: MDA-MB-436, MDA-MB-436, Conc. 0.0152 uM; for inhibition at 0.0457 µM: MDA-MB-436, MDA-MB-436, Conc. 0.0457 uM; for inhibition at 0.41 µM: MDA-MB-436, MDA-MB-436, Conc. 0.41 uM; for inhibition at 1.23 µM: MDA-MB-436, MDA-MB-436, Conc. 1.23 uM; for inhibition at 3.7 µM: MDA-MB-436, MDA-MB-436, Conc. 3.70 uM; for inhibition at 11.11 µM: MDA-MB-436, MDA-MB-436, Conc. 11.11 uM; for inhibition at 33.33 µM: MDA-MB-436, MDA-MB-436, Conc. 33.33 uM; for inhibition at 100 µM: MDA-MB-436, MDA-MB-436, Conc. 100.00 uM; for LogIC50: curve fit on Log (uM) concentrations; for Bottom / Top: curve fit parameter (Inh %); for Top: '= 100.0' is a constrained value
Experimental: as §2, §3, §4

[3] = supplement sheet, read-out: 10 nM inhibition% PAPR-2
[4] = read-out: PARP-2 Inhibition % (10 nM)
[5] = CAPAN-1, 72 h, CellTiter-Glo, read-out: CAPAN-1 IC50
[6] = supplement sheet, read-out: 10 nM inhibition% PAPR-1
[7] = read-out: PARP-1 Inhibition % (10 nM)
[8] = MDA-MB-436, 72 h, CellTiter-Glo, read-out: MDA-MB-436 IC50
[9] = MDA-MB-436, 72 h, supplement Summary sheet, read-out: IC50
[10] = MDA-MB-436, curve fit list, no unit in the cell, concentration in uM, read-out: IC50

NC(=O)c1cccc2[nH]c(C3CCN(CCC(=O)Nc4ccccc4)C3)nc12 (stereo not drawn) [Compound 5cb, 2-(1-(3-Oxo-3-(Phenylamino)propyl)pyrrolidin-3-yl)-1H-benzo[d]imidazole-4-carboxamide]
inhibition at 0.01 µM (PARP-2; [3]): 41.2%
inhibition at 0.01 µM (PARP-2; [4]): 41.2%
LogIC50 ([1]; CAPAN-1, curve-fit output): 2.189
IC50 [1, 5]: > 100 µM
inhibition at 0.00508 µM ([1]; replicate 1, read-out: Inh % 1): -8%
inhibition at 0.00508 µM ([1]; replicate 2, read-out: Inh % 2): 3.3%
inhibition at 0.0152 µM ([1]; replicate 1, read-out: Inh % 1): 3.4%
inhibition at 0.0152 µM ([1]; replicate 2, read-out: Inh % 2): 17%
inhibition at 0.0457 µM ([1]; replicate 1, read-out: Inh % 1): -4.1%
inhibition at 0.0457 µM ([1]; replicate 2, read-out: Inh % 2): 5.6%
inhibition at […] ([1]; replicate 1, read-out: Inh % 1): -2%
inhibition at […] ([1]; replicate 2, read-out: Inh % 2): 2.2%
inhibition at 0.41 µM ([1]; replicate 1, read-out: Inh % 1): 10.3%
inhibition at 0.41 µM ([1]; replicate 2, read-out: Inh % 2): 6.1%
inhibition at 1.23 µM ([1]; replicate 1, read-out: Inh % 1): 12.4%
inhibition at 1.23 µM ([1]; replicate 2, read-out: Inh % 2): -0.64%
inhibition at 3.7 µM ([1]; replicate 1, read-out: Inh % 1): 11.2%
inhibition at 3.7 µM ([1]; replicate 2, read-out: Inh % 2): 9.9%
inhibition at 11.11 µM ([1]; replicate 1, read-out: Inh % 1): 5%
inhibition at 11.11 µM ([1]; replicate 2, read-out: Inh % 2): -4.1%
inhibition at 33.33 µM ([1]; replicate 1, read-out: Inh % 1): 3.6%
inhibition at 33.33 µM ([1]; replicate 2, read-out: Inh % 2): 21.6%
inhibition at 100 µM ([1]; replicate 1, read-out: Inh % 1): 39.1%
inhibition at 100 µM ([1]; replicate 2, read-out: Inh % 2): 32%
inhibition at 0.01 µM (PARP-1; [6]): 19.9%
inhibition at 0.01 µM (PARP-1; [7]): 19.9%
inhibition at 0.00508 µM ([2]; replicate 1, read-out: Inh % 1): 0.0167%
inhibition at 0.00508 µM ([2]; replicate 2, read-out: Inh % 2): -6.8%
inhibition at 0.0152 µM ([2]; replicate 1, read-out: Inh % 1): -5.6%
inhibition at 0.0152 µM ([2]; replicate 2, read-out: Inh % 2): -10.5%
inhibition at 0.0457 µM ([2]; replicate 1, read-out: Inh % 1): -12.9%
inhibition at 0.0457 µM ([2]; replicate 2, read-out: Inh % 2): -11.3%
inhibition at 0.41 µM ([2]; replicate 1, read-out: Inh % 1): -10%
inhibition at 0.41 µM ([2]; replicate 2, read-out: Inh % 2): -14%
inhibition at 1.23 µM ([2]; replicate 1, read-out: Inh % 1): -9.6%
inhibition at 1.23 µM ([2]; replicate 2, read-out: Inh % 2): -14.7%
inhibition at 3.7 µM ([2]; replicate 1, read-out: Inh % 1): -9.8%
inhibition at 3.7 µM ([2]; replicate 2, read-out: Inh % 2): -10.5%
inhibition at 11.11 µM ([2]; replicate 1, read-out: Inh % 1): -2.5%
inhibition at 11.11 µM ([2]; replicate 2, read-out: Inh % 2): -1.6%
inhibition at 33.33 µM ([2]; replicate 1, read-out: Inh % 1): 9.7%
inhibition at 33.33 µM ([2]; replicate 2, read-out: Inh % 2): 9.8%
inhibition at 100 µM ([2]; replicate 1, read-out: Inh % 1): 58.3%
inhibition at 100 µM ([2]; replicate 2, read-out: Inh % 2): 40%
IC50 [2, 8]: 90.4 µM
IC50 [2, 9]: 90.4 µM
IC50 [2, 10]: 90.4 µM
LogIC50 ([2]; MDA-MB-436): 1.956
Bottom ([2]; MDA-MB-436): -10.26
Top ([2]; MDA-MB-436): = 100.0

NC(=O)c1cccc2[nH]c(C3CCN(CC(=O)c4ccccc4)C3)nc12 (stereo not drawn) [Compound 5cd, 2-(1-(2-Oxo-2-phenylethyl)pyrrolidin-3-yl)-1H-benzo[d]imidazole-4-carboxa-mide]
inhibition at 0.01 µM (PARP-2; [3]): 7.18%
inhibition at 0.01 µM (PARP-2; [4]): 7.2%
LogIC50 ([1]; CAPAN-1, curve-fit output): 1.917
IC50 [1, 5]: 82.5 µM
inhibition at 0.00508 µM ([1]; replicate 1, read-out: Inh % 1): 4.6%
inhibition at 0.00508 µM ([1]; replicate 2, read-out: Inh % 2): -0.8%
inhibition at 0.0152 µM ([1]; replicate 1, read-out: Inh % 1): 2.6%
inhibition at 0.0152 µM ([1]; replicate 2, read-out: Inh % 2): -1.6%
inhibition at 0.0457 µM ([1]; replicate 1, read-out: Inh % 1): 0.6%
inhibition at 0.0457 µM ([1]; replicate 2, read-out: Inh % 2): -4.7%
inhibition at […] ([1]; replicate 1, read-out: Inh % 1): 3.7%
inhibition at […] ([1]; replicate 2, read-out: Inh % 2): -1.1%
inhibition at 0.41 µM ([1]; replicate 1, read-out: Inh % 1): 13.1%
inhibition at 0.41 µM ([1]; replicate 2, read-out: Inh % 2): 3.2%
inhibition at 1.23 µM ([1]; replicate 1, read-out: Inh % 1): 2.1%
inhibition at 1.23 µM ([1]; replicate 2, read-out: Inh % 2): 3.2%
inhibition at 3.7 µM ([1]; replicate 1, read-out: Inh % 1): 4%
inhibition at 3.7 µM ([1]; replicate 2, read-out: Inh % 2): 4.4%
inhibition at 11.11 µM ([1]; replicate 1, read-out: Inh % 1): 1%
inhibition at 11.11 µM ([1]; replicate 2, read-out: Inh % 2): 4.4%
inhibition at 33.33 µM ([1]; replicate 1, read-out: Inh % 1): 17.9%
inhibition at 33.33 µM ([1]; replicate 2, read-out: Inh % 2): 8.7%
inhibition at 100 µM ([1]; replicate 1, read-out: Inh % 1): 68%
inhibition at 100 µM ([1]; replicate 2, read-out: Inh % 2): 55.2%
IC50 ([1]; CAPAN-1, 72 h, supplement Summary sheet, read-out: IC50): 82.5 µM
IC50 ([1]; CAPAN-1, curve-fit output, concentrations in uM, read-out: IC50): 82.5 µM
inhibition at 0.01 µM (PARP-1; [6]): -1.05%
inhibition at 0.01 µM (PARP-1; [7]): -1.1%
inhibition at 0.00508 µM ([2]; replicate 1, read-out: Inh % 1): -0.654%
inhibition at 0.00508 µM ([2]; replicate 2, read-out: Inh % 2): -7.1%
inhibition at 0.0152 µM ([2]; replicate 1, read-out: Inh % 1): -3.7%
inhibition at 0.0152 µM ([2]; replicate 2, read-out: Inh % 2): -6.1%
inhibition at 0.0457 µM ([2]; replicate 1, read-out: Inh % 1): -6.8%
inhibition at 0.0457 µM ([2]; replicate 2, read-out: Inh % 2): -12.7%
inhibition at 0.41 µM ([2]; replicate 1, read-out: Inh % 1): -13.5%
inhibition at 0.41 µM ([2]; replicate 2, read-out: Inh % 2): -13.2%
inhibition at 1.23 µM ([2]; replicate 1, read-out: Inh % 1): -16.5%
inhibition at 1.23 µM ([2]; replicate 2, read-out: Inh % 2): -19%
inhibition at 3.7 µM ([2]; replicate 1, read-out: Inh % 1): -10.3%
inhibition at 3.7 µM ([2]; replicate 2, read-out: Inh % 2): -11.7%
inhibition at 11.11 µM ([2]; replicate 1, read-out: Inh % 1): 0.3%
inhibition at 11.11 µM ([2]; replicate 2, read-out: Inh % 2): -11%
inhibition at 33.33 µM ([2]; replicate 1, read-out: Inh % 1): 35.4%
inhibition at 33.33 µM ([2]; replicate 2, read-out: Inh % 2): 16.5%
inhibition at 100 µM ([2]; replicate 1, read-out: Inh % 1): 68.9%
inhibition at 100 µM ([2]; replicate 2, read-out: Inh % 2): 66.2%
IC50 [2, 8]: 55 µM
IC50 [2, 9]: 55 µM
IC50 [2, 10]: 55 µM
LogIC50 ([2]; MDA-MB-436): 1.74
Bottom ([2]; MDA-MB-436): -10.87
Top ([2]; MDA-MB-436): = 100.0
